Measured values from US5508311A, “Aliphatic propargylamines as selective MAO-B inhibitors and as neuroprotective agents” (University of Saskatchewan, priority 1993, dated 1996).
pIC50: −log10 of the molar value. Counter-ions that a name gives are not always drawn. Like-named read-outs stand apart in the source and are kept apart here.

Columns and labels:
[1] = molecular target: T1, MAO-A (Rattus norvegicus, UniProt P21396); experiment: biochemical; format: biochemical
T1 sequence (P21396 1-526): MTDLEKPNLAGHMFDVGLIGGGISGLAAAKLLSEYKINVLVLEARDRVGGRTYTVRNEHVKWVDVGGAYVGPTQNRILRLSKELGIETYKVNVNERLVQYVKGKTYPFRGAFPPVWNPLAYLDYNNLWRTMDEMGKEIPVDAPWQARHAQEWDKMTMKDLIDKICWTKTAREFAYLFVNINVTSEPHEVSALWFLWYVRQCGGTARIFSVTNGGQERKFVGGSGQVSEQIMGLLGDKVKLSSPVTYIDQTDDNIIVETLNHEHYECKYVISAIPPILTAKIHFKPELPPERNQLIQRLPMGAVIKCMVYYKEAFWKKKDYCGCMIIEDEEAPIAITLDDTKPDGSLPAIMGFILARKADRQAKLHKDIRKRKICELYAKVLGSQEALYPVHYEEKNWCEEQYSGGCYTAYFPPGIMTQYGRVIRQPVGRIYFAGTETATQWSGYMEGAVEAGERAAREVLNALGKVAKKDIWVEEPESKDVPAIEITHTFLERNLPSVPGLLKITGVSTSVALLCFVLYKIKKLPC
Procedure: (§1) The aliphatic propargylamine inhibitors (from 1×10^-10 M to 1×10^-4 M) were preincubated with the MAO for 20 min. at ambient room temperature and then the residual enzyme activities were determined by addition of the substrates, followed by further incubation at 37° C. for 30 min. The enzymatic reactions were terminated by the addition of citric acid and the aldehyde products were extracted with toluene: ethyl acetate (1:1, v/v) and the radio-activities assessed in a scintillation counter.

[2] = molecular target: T2, MAO-B (Rattus norvegicus, UniProt P19643); experiment: biochemical; format: biochemical
T2 sequence (P19643 1-520): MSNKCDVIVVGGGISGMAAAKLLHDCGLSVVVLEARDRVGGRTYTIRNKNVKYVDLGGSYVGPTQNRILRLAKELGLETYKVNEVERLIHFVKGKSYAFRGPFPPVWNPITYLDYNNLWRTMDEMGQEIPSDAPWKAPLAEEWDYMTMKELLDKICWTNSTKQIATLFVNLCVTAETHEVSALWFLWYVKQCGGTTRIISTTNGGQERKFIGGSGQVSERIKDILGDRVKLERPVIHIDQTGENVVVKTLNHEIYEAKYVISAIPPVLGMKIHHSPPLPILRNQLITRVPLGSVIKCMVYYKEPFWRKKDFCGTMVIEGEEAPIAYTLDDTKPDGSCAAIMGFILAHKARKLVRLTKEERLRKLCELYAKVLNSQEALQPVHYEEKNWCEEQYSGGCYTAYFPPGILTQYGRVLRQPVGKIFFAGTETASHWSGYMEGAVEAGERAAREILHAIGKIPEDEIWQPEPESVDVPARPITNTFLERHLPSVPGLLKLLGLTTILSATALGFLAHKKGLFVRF
Procedure: as §1

[3] = molecular target: monoamine oxidase; experiment: Inhibition of rat liver monoamine oxidase deamination of dopamine (DA, mixed-type MAO A and B substrate) in vitro; format: biochemical; conditions: substrate DA (5 × 10^-4 M), average of at least 3 independent experiments
Procedure: as §1

[4] = molecular target: T3, MAO-B (Mus musculus, UniProt Q8BW75); experiment: in vivo; format: in vivo; conditions: for Ratio MAO-A/MAO-B: 120 min; for ED50: read-out: PE ID50
T3 construct: MAO activities in the mouse brain after; from tissue
T3 sequence (Q8BW75 1-520): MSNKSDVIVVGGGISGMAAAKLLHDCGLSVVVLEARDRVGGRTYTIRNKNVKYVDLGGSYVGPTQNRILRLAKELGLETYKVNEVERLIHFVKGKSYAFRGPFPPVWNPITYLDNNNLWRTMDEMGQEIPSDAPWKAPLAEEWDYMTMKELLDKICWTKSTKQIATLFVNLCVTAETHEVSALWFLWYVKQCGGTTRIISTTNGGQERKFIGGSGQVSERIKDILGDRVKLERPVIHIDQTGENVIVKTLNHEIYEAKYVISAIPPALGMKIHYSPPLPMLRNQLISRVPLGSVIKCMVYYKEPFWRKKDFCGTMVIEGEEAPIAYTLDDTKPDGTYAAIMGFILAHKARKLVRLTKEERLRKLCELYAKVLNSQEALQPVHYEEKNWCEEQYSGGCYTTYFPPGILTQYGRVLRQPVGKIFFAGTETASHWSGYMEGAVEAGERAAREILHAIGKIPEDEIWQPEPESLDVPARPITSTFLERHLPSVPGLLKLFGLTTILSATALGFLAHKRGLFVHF
Procedure: (§2) Albino Swiss mice were used in this study. The animals were injected intraperitoneally with different doses of the aliphatic propargylamines in 100 μL saline.
(§3) 0.5, 1, 2, 5, 10, 20, 50, 100 mg/Kg. Striata were dissected from the brai
(§4) two hours after i.p. administration of the drugs. MAOA and MAOB activitie
(§5) were determined immediately. The values were estimated from doseresponse

[5] = molecular target: T4, MAO-A (Mus musculus, UniProt Q64133); experiment: in vivo; conditions: ip, read-out: 5-HT ID50
T4 construct: MAO activities in the mouse brain after; from tissue
T4 sequence (Q64133 1-526): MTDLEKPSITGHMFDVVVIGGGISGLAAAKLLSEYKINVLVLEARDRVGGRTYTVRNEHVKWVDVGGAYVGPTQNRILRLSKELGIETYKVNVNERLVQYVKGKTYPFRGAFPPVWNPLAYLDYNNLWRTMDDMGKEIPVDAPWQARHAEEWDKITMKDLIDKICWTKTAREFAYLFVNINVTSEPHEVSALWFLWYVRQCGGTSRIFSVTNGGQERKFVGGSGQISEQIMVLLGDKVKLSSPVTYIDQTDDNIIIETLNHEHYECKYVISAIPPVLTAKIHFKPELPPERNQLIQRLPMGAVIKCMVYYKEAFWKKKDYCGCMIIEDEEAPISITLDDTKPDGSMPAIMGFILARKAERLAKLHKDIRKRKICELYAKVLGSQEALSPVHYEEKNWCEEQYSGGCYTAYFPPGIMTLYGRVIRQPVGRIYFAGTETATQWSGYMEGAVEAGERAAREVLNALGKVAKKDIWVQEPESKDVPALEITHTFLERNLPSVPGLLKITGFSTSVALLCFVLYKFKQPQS
Procedure: as §2, §3, §4, §5

[6] = molecular target: T3, MAO-B; experiment: MAO-B activity in the mouse brain after oral administration (substrate PE); format: in vivo; conditions: for Relative activity PE: oral 10 mg/Kg, 2 hours, PE (1.9 × 10^-5 M), mean ± standard error, saline = 100
Procedure: (§6) Table 3 indicates the MAO activities in the mouse brain following oral administration of the aliphatic propargylamines.
(§7) of each compound. Striata were dissected from the brain two hours after
(§8) the administration of the drugs. MAOA and MAOB activities were determined
Striata were dissected from the brain two
hours after oral administration of the drugs. MAOB activities were then
determined immediately. The values were estimated from doseresponse

[7] = molecular target: T4, MAO-A; format: in vivo
Procedure: as §6, §7, §8

[8] = substrate 5-HT (5 × 10^-4 M), rat liver MAO, in vitro, average of at least 3 independent experiments
[9] = substrate PE (1.9 × 10^-5 M), rat liver MAO, in vitro, average of at least 3 independent experiments
[10] = rat, liver mitochondrial membranes

C#CCN(C)C(C)C.Cl [Example 2-PrMP, N-Methyl-N-(2-propyl)propargylamine hydrochloride]
5-HT IC50 [1, 8]: no effect
pIC50 ([2]; […], rat liver MAO, in vitro, average of at least 3 independent experiments, read-out: PE IC50): 4.70
pIC50 [3]: 4.52

C#CCN(CC)C(C)CC (stereo not shown) [Example 2-BuEP, N-(2-Butyl)-N-ethylpropargylamine hydrochloric salt]
5-HT IC50 [1, 8]: inactive
PE IC50 [2, 9]: inactive

C#CCN(CC)CCCC.O=C(O)C(=O)O [Example 1-BuEP, N-(1-Butyl)-N-ethylpropargylamine oxalate salt]
5-HT IC50 [1, 8]: inactive
PE IC50 [2]: inactive

C#CCN(C)C(C)CCCCC.Cl (stereo not shown) [Example 2-HMP, N-(2-Heptyl)-N-methylpropargylamine hydrochloride]
pIC50 [1, 8]: 4.70
Ratio MAO-A/MAO-B [2, 10]: 100
pIC50 ([2]; read-out: PE IC50): 6.70
pIC50 [3]: 6.52
MAO-B ID50 (mg/Kg) / IC50 (1 × 10^-6 M) ([4]; mouse, in vivo, ip): 2.5
Ratio MAO-A/MAO-B ([4]; mouse, in vivo, ip): 50
ED50 ([4]; mouse, ip, 2 h): 0.5 mg/kg
ED50 ([5]; 2 h): 25 mg/kg
Relative activity PE [6]: 39 ± 4%
Relative activity 5-HT ([7]; mouse, in vivo, po, 10 mg/kg): 99 ± 5

C#CCN(C)CCCCCCC.Cl [Example 1-HMP, N-(1-Heptyl)-N-methylpropargylamine hydrochloride]
pIC50 [1, 8]: 4.40
Ratio MAO-A/MAO-B ([2]; ratio of IC50 values, in vitro): 20
pIC50 ([2]; read-out: PE IC50): 5.70
MAO-B ID50 (mg/Kg) / IC50 (1 × 10^-6 M) ([4]; ID50 i.p. in mice versus IC50 in vitro): 7.5 (mg/Kg)/(1 × 10^-6 M)
ED50 ([4]; mouse, ip, 2 hours after administration, […], estimated from dose response curves): 15 mg/kg
Ratio MAO-A/MAO-B ([4]; ratio of ID50 values, i.p.): 7
ED50 ([5]; 2 hours after administration, 5-HT 5 × 10^-4 M, estimated from dose response curves): 100 mg/kg
Relative activity PE [6]: 118 ± 14%
Relative activity 5-HT ([7]; oral 10 mg/Kg, 2 hours, 5-HT (5 × 10^-4 M), mean ± standard error, saline = 100): 123 ± 16%

C#CCN(C)C(C)CCCCCCCCCC.Cl (stereo not shown) [Example 2-DdMP, N-(2-dodecyl)-N-methylpropargylamine-HCl]
pIC50 ([1]; read-out: 5-HT IC50): 5.70
Ratio MAO-A/MAO-B [2, 10]: 50
pIC50 [2, 9]: 7.40
pIC50 [3]: 6.52
MAO-B ID50 (mg/Kg) / IC50 (1 × 10^-6 M) ([4]; mouse, in vivo, ip): 100
Ratio MAO-A/MAO-B ([4]; mouse, in vivo, ip): 15
ED50 ([4]; mouse, ip, 2 h): 4 mg/kg
ED50 ([5]; 2 h): 60 mg/kg
effectiveness in blocking MAO-B activity in vivo after acute oral administration (in words) ([6]; mouse, oral): less potent at inhibiting MAO-B activity in vivo after acute administration
Relative activity PE [6]: 64 ± 8%
Relative activity 5-HT ([7]; mouse, in vivo, po, 10 mg/kg): 107 ± 14

C#CCN(C)CCCCCC(=O)OCC.O=C(O)C(=O)O [Example 5-CP1MP, N-(5-carbethoxy-1-pentyl)-N-methylpropargylamine oxalate]
5-HT IC50 [1, 8]: inactive
PE IC50 [2]: inactive
DA IC50 [3]: inactive
